Laboratory results reported in ChEMBL document CHEMBL1124304 (J Med Chem, 1988).

Columns and labels:
[1] = biological target: T1, Adenosine receptor A1 (Rattus norvegicus, UniProt P25099)
T1 sequence (P25099 whole entry): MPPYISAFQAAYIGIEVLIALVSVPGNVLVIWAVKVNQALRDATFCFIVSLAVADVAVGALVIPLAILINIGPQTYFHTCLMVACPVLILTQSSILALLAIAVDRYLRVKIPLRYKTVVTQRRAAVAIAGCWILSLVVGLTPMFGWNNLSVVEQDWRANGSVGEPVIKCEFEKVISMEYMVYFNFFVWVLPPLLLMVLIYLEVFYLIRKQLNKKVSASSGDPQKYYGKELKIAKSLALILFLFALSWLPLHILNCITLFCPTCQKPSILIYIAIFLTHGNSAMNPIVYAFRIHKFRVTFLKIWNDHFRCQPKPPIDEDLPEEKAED
Description: Binding affinity towards adenosine A1 receptor on rat whole brain membrane using [3H]N6-cyclohexyladenosine

[2] = biological target: Adenosine A2 receptor (Rattus norvegicus, UniProt P29276+P30543)
Description: Binding affinity towards adenosine A2 receptor on rat striatal membrane using [3H]NECA as radioligand

[3] = biological target: T2, Adenosine receptor A1 (Rattus norvegicus) (UniProt P25099); assay: (§1) Reduction of heart rate (A1 response) in isolated rat heart preparation; assay type: functional, tissue-based
T2 sequence (whole entry): T1 sequence (P25099 whole entry)

[4] = biological target: T3, Adenosine A2 receptor (Rattus norvegicus) (UniProt P29276+P30543)
[5] = biological target: T3, Adenosine A2 receptor (Rattus norvegicus); remark: listed apart in the source
[6] = organism: Rattus norvegicus; assay: Enhancement of coronary flow (A2 response) in isolated rat heart preparation; assay type: functional
[7] = organism: Rattus norvegicus; assay: as §1; assay type: functional

| Compound | Ki [1] | Ki [2] | EC25 [3] | EC25 [4] | EC25 [5] | EC25 [6] | EC25 [7] |
| --- | --- | --- | --- | --- | --- | --- | --- |
| OC[C@H]1OC(n2cnc3c(NCC4c5ccccc5CCc5ccccc54)ncnc32)[C@H](O)[C@@H]1O (stereo partly specified) | 160 nM | 390 nM |  |  |  |  |  |
| OC[C@H]1O[C@@H](n2cnc3c(NCc4ccccc4)ncnc32)[C@H](O)[C@@H]1O |  |  | 2300 nM | 35 nM |  |  |  |
| OC[C@H]1OC(n2cnc3c(NC4c5ccccc5-c5ccccc54)ncnc32)[C@H](O)[C@@H]1O (stereo partly specified) | 6200 nM | 42000 nM |  |  |  |  |  |
| OC[C@H]1O[C@@H](n2cnc3c(NCc4cccc5ccccc45)ncnc32)[C@H](O)[C@@H]1O | 24 nM | 9.1 nM | 400 nM |  | 1.2 nM |  |  |
| C[C@H](Cc1ccccc1)Nc1ncnc2c1ncn2[C@@H]1O[C@H](CO)[C@@H](O)[C@H]1O |  |  | 13 nM | 10 nM |  |  |  |
| OC[C@H]1O[C@@H](n2cnc3c(NC4CCCC4)ncnc32)[C@H](O)[C@@H]1O |  |  | 3 nM | > 100 nM |  |  |  |
| OC[C@H]1OC(n2cnc3c(NCCC4c5ccccc5-c5ccccc54)ncnc32)[C@H](O)[C@@H]1O (stereo partly specified) | 320 nM | 4300 nM | > 3000 nM |  | 400 nM |  |  |
| OC[C@H]1OC(n2cnc3c(NCCc4cccc5ccccc45)ncnc32)[C@H](O)[C@@H]1O (stereo partly specified) | 12.3 nM | 230 nM | 110 nM |  | 30 nM |  |  |
| Nc1nc(Cl)nc2c1ncn2[C@@H]1O[C@H](CO)[C@@H](O)[C@H]1O |  |  | 170 nM | 13 nM |  |  |  |
| OC[C@H]1OC(n2cnc3c(NCc4c5ccccc5cc5ccccc45)ncnc32)[C@H](O)[C@@H]1O (stereo partly specified) | 9000 nM | 29000 nM |  |  |  |  |  |
| CCNC(=O)[C@H]1O[C@@H](n2cnc3c(N)ncnc32)[C@H](O)[C@@H]1O [NECA] |  |  |  |  |  | 1.1 nM | 21 nM |
| OC[C@H]1O[C@@H](n2cnc3c(NCC(c4ccccc4)c4ccccc4)ncnc32)[C@H](O)[C@@H]1O |  |  | 90 nM | 10 nM |  |  |  |
| OC[C@H]1O[C@@H](n2cnc3c(NCCc4ccccc4)ncnc32)[C@H](O)[C@@H]1O |  | 160 nM | 300 nM | 70 nM |  |  |  |
| OC[C@H]1OC(n2cnc3c(NCC4c5ccccc5Oc5ccccc54)ncnc32)[C@H](O)[C@@H]1O (stereo partly specified) | 62 nM | 48 nM | 1200 nM |  | 2 nM |  |  |
| OC[C@H]1O[C@@H](n2cnc3c(NCC4c5ccccc5-c5ccccc54)ncnc32)[C@H](O)[C@@H]1O |  |  | 100 nM |  | 2 nM |  |  |
| Nc1nc(Nc2ccccc2)nc2c1ncn2[C@@H]1O[C@H](CO)[C@@H](O)[C@H]1O |  |  | 7000 nM | 3 nM |  |  |  |
